Laboratory results published in ChEMBL document CHEMBL5131526, “Substituted N-Heteroaryl-N-Pyridinylacetamides as P2X4 Modulators for Treating Pain” (ACS Med Chem Lett, 2022).

Biological target: T1, P2X purinoceptor 4 (Homo sapiens, UniProt Q99571)
T1 sequence (Q99571 whole entry): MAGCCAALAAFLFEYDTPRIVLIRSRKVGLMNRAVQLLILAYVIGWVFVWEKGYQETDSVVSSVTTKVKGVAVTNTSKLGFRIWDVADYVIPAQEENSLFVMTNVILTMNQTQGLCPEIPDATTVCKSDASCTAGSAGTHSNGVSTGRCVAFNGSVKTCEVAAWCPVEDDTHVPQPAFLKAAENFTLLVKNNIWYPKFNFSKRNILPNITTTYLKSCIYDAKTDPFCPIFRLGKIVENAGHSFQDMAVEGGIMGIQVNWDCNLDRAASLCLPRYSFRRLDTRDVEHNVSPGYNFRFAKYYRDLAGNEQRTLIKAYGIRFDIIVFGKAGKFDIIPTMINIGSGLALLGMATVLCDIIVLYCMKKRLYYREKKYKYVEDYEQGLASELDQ
Experiment: Inhibition of human P2X4 stably expressed in human HEK293 cells assessed as intracellular calcium flux incubated for 30 mins in presence of agonist Benzoylbenzoyl-ATP by Fluo8-AM dye based FLIPR assay
Assay type: cell-based

Row | Structure (SMILES) | IC50 [nM]
1 | CC(=O)N(c1ccc2ncoc2c1)c1cc(NC(=O)Cc2ccccc2Cl)ccn1 | 168
2 | CC(=O)N(c1ccc2ncsc2c1)c1cc(NC(=O)Cc2ccccc2Cl)ccn1 | 142
3 | CC(=O)N(c1ccn2nccc2c1)c1cc(NC(=O)Cc2c(Cl)cccc2Cl)ccn1 | 157
4 | CC(=O)N(c1cc(NC(=O)Cc2c(Cl)cccc2Cl)ccn1)c1ccncc1F | 171
5 | CC(=O)N(c1ccc2ncoc2c1)c1cc(NC(=O)Cc2cccc(F)c2Cl)ccn1 | 143
6 | CC(=O)N(c1ccc2ncoc2c1)c1cc(NC(=O)Cc2c(Cl)cccc2Cl)ccn1 | 141
